This assay relates to S6-M19-SAM sensor (RNA, riboswitch) GGGAGAUAGAGCAUCCGAUAACUUCGGUUAUUGGAUGGAUCAGACUCCUUCGGGAGUUUGAUCGGGCCUGAAGCCUCCACGGGCCCCUCUGUCUCCCACAGCUUGGACGAGCUGAAGGAGGCACGGCUCCCCAUCAAGGACGGGUCCAAUGGUCCGCUUCGGCGGAUCAUUGUUGAGUAGAGUGUGAGGAUGGGCCGGGGGAACUUCGGUUCCCGAAAGGACCGGUCGAAGGGACGGUGCGGAGAGGAGAGACUGGGAUGCCUUGUAACCGGGUCUAAGUUGU
Put plainly: FRET dose-response (Spinach/DFHBI-1T to Mango/YO3-biotin). The settings on record: 125 mM KCl, 1 mM MgCl2; assembly buffer; 50 nM RNA, 1 µM DFHBI-1T, 1.7 µM YO3-biotin; SAM 1 µM to 2.5 mM; apparent.

EC50 data for one molecule are collected here from publication PMC5750238 (2018).

As to `C[S+](CC[C@H](N)C(=O)O)C[C@H]1O[C@@H](n2cnc3c(N)ncnc32)[C@H](O)[C@@H]1O` (stereo partly shown), the concentration giving a half-maximal response (EC50) turned out to be 17 µM.

A word on the EC50: it is the concentration needed to bring the measured effect to its halfway point.
